Values joined by “and” are separate entries in the source; they are usually repeats but may differ in a detail not shown here. Equal values may be shown once. Read-outs that look alike come from different tables or passages of the source.
How the values were obtained:
[1] = cited from earlier work
Human 3A4 P-450 = target: T1, Human 3A4 P-450 (Homo sapiens, UniProt P08684); assay: P450 stability assay with 3A4 P-450 supersomes; type: in vitro ADME; conditions: 20 μM FK species, 200 pmole P-450/mL, 37° C.
T1 construct: purchased Gentest Corporation (Woburn, Mass.) P207
Method: A mixture containing FK species and a NADPH regenerating system was pre-incubated at 37° C. for 10 minutes before the reaction was commenced by the addition of the P-450 supersomes. The final concentrations of the components were: 100 mM potassium phosphate, pH 7.4; 3.3 mM MgCl2; 3.3 mM glucose-6-phosphate; 1.3 mM NADP; 0.4 U/mL glucose-6-phosphate dehydrogenase; 200 pmole P-450/mL; and 20 μM FK species. Control reactions contained “mock” supersomes without 3A4 P-450 activity. Human 3A4 P-450+Reductase supersomes (cat #P207) and vector control “mock” supersomes without 3A4P-450 (cat #P201) were obtained from Gentest Corporation (Woburn, Mass.).
Following addition of supersomes or mock supersomes, reactions were terminated at 0 minutes (immediately upon addition of P-450) and 30 minutes by addition of acetonitrile containing 0.1% acetic acid to 20% final acetonitrile concentration, followed by freezing immediately on dry ice. For reactions containing the 13-desmethoxy-13-methyl-32-(2-hydroxyethylindolyl)-FK analog, an equal volume of MeOH was added following addition of acetonitrile and the samples were immediately frozen on dry ice. The samples were clarified by centrifugation at 13,000 rpm for 5 minutes at 4° C. in a micro centrifuge prior to HPLC analysis.
The following HPLC program was employed: Column =MetaChem 0.46×15 cm intersil C18 column (5 μm); Solvent A=0.1% HOAc in water; Solvent B=0.1 % HOAc in acetonitrile. Detection=UV (210 nm) and ELSD. Gradient: Equilibration with 20% B; injection (up to 1 ml), hold at 20% B for 5 minutes; linear gradient to 50% B in 5 minutes; linear gradient to 100% B in 20 minutes; to 20% B in 1 minute; hold at 20% B for 10 minutes to equilibrate.
There was no change in peak area after 30 minutes when the FK analogs were incubated with mock supersomes.

FKBP-12 = target: T2, FKBP-12 (Homo sapiens, UniProt P62942); assay: FKBP-12 binding assay ([3H]FK-506 competition)
T2 construct: purchased Sigma; host or cells: E. coli
Method: Calcineurin (“>95% pure by SDS/PAGE”) was obtained from Calbiochem. Neutravidin® coated strip plates, pre-blocked with SuperBlock® were obtained from Pierce. […] Synthetic RII peptide (^+[…]^-) was obtained from Peptides International (Louisville, […].com). […] ATP, cAMP, the catalytic subunit of protein kinase A, bovine brain calmodulin and human FKBP, expressed in E. coli were obtained from Sigma. […] The mixture was incubated for 2 hours at 0° C., the solution was aspirated from the wells, and each well was quickly washed with 300 uL of ice cold PBS-tween. Wells were broken apart, placed in scintillation vials with 10 mL of Scintiverse BD and bound radioactivity was quantitated by scintillation counting. […] to calculate the Kd.

[2] = tested on: SH-SY5Y human neuroblastoma cells; assay: Nerve growth (neurite length) assay; type: cell-based
Method: Table 9 summarizes the results of nerve growth as using SH-SY5Y human neuroblastoma cells according to Gold et al., Exp Neuro, 147(2): 269-87 (1997) which is incorporated herein by reference. The assay measures the mean neurite length in […] that were induced at 0.1 nM and 10 nM of the compound of interested after 96 or 168 hours.

calcineurin = calcineurin (Bos taurus, UniProt P48452+P62942+P63099); assay: Calcineurin phosphatase inhibition assay (FKBP-compound complex); type: biochemical; conditions: 15 nM calcineurin, 30 nM calmodulin, 1 uM phospho-RII peptide, 30° C.
Method: The catalytic subunit of protein kinase A was used to transfer the labeled phosphate from [γ-^32P]ATP to […] of the RII peptide. […] Fractions were collected and monitored by scintillation counting. […] The columns were prepared by resuspending the resin in water such that there was one volume of water above each volume of settled resin. The slurry (1 mL) was then pipetted into each column, followed by 10 mL of water. The bed volume was verified, then each column was washed with 1 mL 1 N NaOH, 2 mL 1 N HCl, and 4 mL water. Quenched reaction mixtures were applied to the columns, washed twice with 750 uL of water and the eluate was collected directly into scintillation vials. Scintiverse BD (15 mL) was added to each vial, and ^32PO4 was quantitated by scintillation counting. […] Following a 30 minute preincubation, reactions were initiated by addition of the phospho-RII peptide substrate to 1 uM and incubated at 30° C. Aliquots were removed at 3 and 35 minutes, quenched, and PO4 release was measured as described above.

Row | P450 % Stability (at 30 min) (Human 3A4 P-450) | Kd (FKBP-12) [nM] | Compound | Neurite Length at 0.1 nM 96 h [2] [µm] | Neurite Length at 0.1 nM 168 h [2] [µm] | also measured
1 |  |  | C=CC[C@@H]1/C=C(\C)C[C@H](C)C[C@H](OC)[C@H]2O[C@@](O)(C(=O)C(=O)N3CCCC[C@H]3C(=O)O[C@H](/C(C)=C/[C@@H]3CC[C@@H](O)[C@H](OC)C3)[C@H](C)[C@@H](O)CC1=O)[C@H](C)C[C@@H]2OC.O [FK-506, tacrolimus] |  |  | excreted unchanged in urine ([1]; in vivo): less than 1%; half-life for distribution ([1]; in vivo): 54 min; bioavailability with co-administration of ketoconazole ([1]; ketoconazole, a drug that inhibits P450 3A): doubles; mean bioavailability of the oral dosage form ([1]; oral, range 5 to 65%): 27%
2 | 35% | 0.4 | CC[C@@H]1/C=C(\C)C[C@H](C)C[C@H](OC)[C@@H]2CC[C@@H](C)[C@@](O)(O2)C(=O)C(=O)N2CCCC[C@H]2C(=O)O[C@H](/C(C)=C/[C@@H]2CC[C@@H](O)[C@H](OC)C2)[C@H](C)[C@@H](O)CC1=O [13-desmethoxy-FK-520] |  |  | 
3 |  |  | 18-ene-20-oxa-13-desmethoxy-13-methyl-FK-520 | 144 | 184 | Neurite Length at 10 nM 96 h [2]: 104 µm; Neurite Length at 10 nM 168 h [2]: 135 µm
4 |  |  | Nerve Growth Factor: protein neurotrophic molecule used as comparator in the neurite length assay | 143 | 169 | 
5 | 46% | 0.4 | CC[C@@H]1/C=C(\C)C[C@H](C)C[C@H](OC)[C@H]2O[C@@](O)(C(=O)C(=O)N3CCCC[C@H]3C(=O)O[C@H](/C(C)=C/[C@@H]3CC[C@@H](O)[C@H](OC)C3)[C@H](C)[C@@H](O)CC1=O)[C@H](C)C[C@@H]2OC [FK-520, ascomycin, reference compound] |  |  | 
6 |  | ~1 | CC[C@@H]1/C=C(\C)C(O)[C@H](C)C[C@H](OC)[C@H]2O[C@@](O)(C(=O)C(=O)N3CCCC[C@H]3C(=O)O[C@H](/C(C)=C/[C@@H]3CC[C@@H](O)[C@H](OC)C3)[C@H](C)[C@@H](O)CC1=O)[C@H](C)C[C@@H]2C (stereo partly drawn) [13-desmethoxy-13-methyl-18-hydroxyl-FK-520] | 168 | 191 | Neurite Length at 10 nM 96 h [2]: 132 µm; Neurite Length at 10 nM 168 h [2]: 165 µm
7 | 26% | 1.6 | CC[C@@H]1/C=C(\C)C[C@H](C)C[C@H](OC)[C@H]2O[C@@](O)(C(=O)C(=O)N3CCCC[C@H]3C(=O)O[C@H](/C(C)=C/[C@@H]3CC[C@@H](O)[C@H](OC)C3)[C@H](C)[C@@H](O)CC1=O)[C@H](C)C[C@@H]2C [13-desmethoxy-13-methyl-FK-520] |  |  | 

Row | Compound | P450 % Stability (at 30 min) (Human 3A4 P-450) | Kd (FKBP-12) [nM] | Neurite Length at 0.1 nM 96 h [2] [µm] | Neurite Length at 0.1 nM 168 h [2] [µm] | also measured
8 | 32-[1-(2-Hydroxyethyl)-indol-5-yl]-13-desmethoxy-FK-520 | 72% and 77% |  |  |  | Ki (calcineurin): < 15 nM and 22 nM; Kd (FKBP-12; competition with 0.5 μM [3H]FK-506, 2 hours at 0° C., Kd of [3H]FK-506 assumed to be 0.4 nM): 16.3 nM and 10.4 nM

— US6569867B2, “Polyketide derivatives” (Kosan Biosciences, Inc., priority 1999, dated 2003)
